Data from USRE41920E1, “Isobutylgaba and its derivatives for the treatment of pain” (Warner-Lambert Company LLC, priority 1997, dated 2010).

Columns and labels:
[1] = tested on: carrageenin-induced mechanical hyperalgesia; assay: Carrageenin-induced mechanical hyperalgesia (rat paw pressure test); type: in vivo; details: for MED, antagonism of carrageenin-induced mechanical hyperalgesia: s.c. 3.5 hours after carrageenin
Protocol: Nociceptive pressure thresholds were measured in the rat using the paw pressure test. Baseline (BL) measurements were taken before animals were administered with 100 μL of 2% carrageenin by intraplantar injection. Results are shown as mean (±SEM) of 8 animals per group.
(§1) On the test Day, 2 to 3 baseline measurements were taken before rats (male Sprague-Dawley 70-90 g) were administered with 100 μL of 2% carrageenin by intraplantar injection into the right hind paw. Animals were dosed with the test drug after development of peak hyperalgesia. Separate groups of animals were used for the mechanical and thermal hyperalgesia studies.
Nociceptive pressure thresholds were measured in the rat paw pressure test using an analgesimeter (Ugo Basile). A cut-off point of 250 g was used to prevent any damage to the paw. The intraplantar injection of carrageenin produced a reduction in the nociceptive pressure threshold between 3 and 5 hours after injection, indicating induction of hyperalgesia. […] Gabapentin (3-300 mg/kg, s.c.) and CI-1008 (1-100 mg/kg, s.c.) dose-dependently antagonized the hyperalgesia, with respective MED of 10 and 3 mg/kg (FIG. 2).

[2] = tested on: thermal hyperalgesia after incision of the rat plantaris muscle; assay: Thermal hyperalgesia in the rat postoperative pain model (rat plantar test); type: in vivo; details: for MED, block of development of thermal hyperalgesia: single dose s.c. before surgery (1 hour; morphine 0.5 hour)
Protocol: Gabapentin or S-(+)-3 isobutylgaba was administered 1 hour before surgery. Morphine was administered 0.5 hour before surgery. Thermal paw withdrawal latencies (PWL) were determined for both ipsilateral and contralateral paws using the rat plantar test. For clarity contralateral paw data for drug-treated animals is not shown. Baseline (BL) measurements were taken before surgery and PWL were reassessed 2, 24, 48, and 72 hours postsurgery. […] In the figure, —●— is vehicle contralateral, —◯— is vehicle ispsilateral, —Δ— is 1 mg/kg morphine, —▭— is 3, and —⋄— is 6 for morphine in 4a. In 4b, —Δ— is 3, —▭— is 10, and —⋄— is 30 for gabapentin. In 4c, —Δ— is 3 mg/kg, —▭— is 10, and —⋄— is 30 for S-(+)-isobutylgaba.
(§2) S-(+)-3-Isobutylgaba (S-(+)-IBG) was administered 1 hour after surgery. Thermal paw withdrawal latencies, determined using the rat plantar test, and paw withdrawal thresholds to von Frey hair filaments, were determined in separate groups of animals for both ipsilateral and contralateral paws. For clarity only the ipsilateral paw data is shown. Baseline (BL) measurements were taken before surgery and withdrawal thresholds were reassessed up to 6 hours postsurgery.
(§3) Male Sprague-Dawley rats (250-300 g), obtained from Bantin and Kingmen, (Hull, U. K.) were used in all experiments. Before surgery, animals were housed in groups of 6 under a 12-hour light/dark cycle (lights on at 07 hour 00 minute) with food and water ad libitum. Postoperatively, animals were housed in pairs on “Aqua-sorb” bedding consisting of air laid cellulose (Beta Medical and Scientific, Sale, U.K.) under the same conditions. All experiments were carried out by an observer blind to drug treatments.
(§4) Animals were anaesthetized with 2% isofluorane and 1.4 […] mixture which was maintained during surgery via a nose cone. The plantar surface of the right hind paw was prepared with 50% ethanol, and a 1-cm longitudinal incision was made through skin and fascia, starting 0.5 cm from the edge of the heel and extending towards the toes. The plantaris muscle was elevated using forceps and incised longitudinally. The wound was closed using two simple sutures of braided silk with a FST-02 needle. The wound site was covered with Terramycin spray and Auromycin powder. […] The sutures were removed after 48 hours.
Thermal hyperalgesia was assessed using the rat plantar test (Ugo Basile, Italy) following a modified method of Hargreaves, et al., 1988. Rats were habituated to the apparatus which consisted of three individual perspex boxes on an elevated glass table. A mobile radiant heat source was located under the table and focused onto the hind paw and paw withdrawal latencies (PWL) were recorded. There was an automatic cut off point of 22.5 seconds to prevent tissue damage. PWLs were taken 2 to 3 times for both hind paws of each animal, the mean of which represented baselines for right and left hind paws. The apparatus was calibrated to give a PWL of approximately 10 seconds. PWL(s) were reassessed following the same protocol as above 2, 24, 48, and 72 hours postoperatively.
(§5) Data obtained for thermal hyperalgesia was subjected to a one-way (analysis of variance) ANOVA followed by a Dunnett's t-test. Tactile allodynia results obtained with the von Frey hairs were subjected to an individual Mann Whitney t-test.

[3] = tested on: tactile allodynia after incision of the rat plantaris muscle; assay: Tactile allodynia in the rat postoperative pain model (von Frey hairs); type: in vivo; details: for effect on tactile allodynia scores in the contralateral paw: up to the highest dose tested; for MED, prevention of development of tactile allodynia: s.c. 1 hour before surgery
Protocol: Gabapentin or S-(+)-3-isobutylgaba was administered 1 hour before surgery. Morphine was administered 0.5 hour before surgery. Paw withdrawal thresholds to von Frey hair filaments were determined for both ipsilateral and contralateral paws. For clarity, contralateral paw data for drug-treated animals is not shown. Baseline (BL) measurements were taken before surgery, and withdrawal thresholds were reassessed 3, 25, 49, and 73 hours postsurgery. […] In FIG. 5, —●— is vehicle contralateral, —◯— is vehicle ispsilateral. For morphine (5a), —Δ— is 1 mg/kg, —▭— is 3, and —⋄— is 16.
as §2, §3, §4
Tactile allodynia was measured using Semmes-Weinstein von Frey hairs (Stoelting, Ill., U.S.A.). Animals were placed into wire-mesh-bottom cages allowing access to the underside of their paws. The animals were habituated to this environment prior to the start of the experiment. Tactile allodynia was tested by touching the plantar surface of the animals hind paw with von Frey hairs in ascending order of force (0.7, 1.2, 1.5, 2, 3.6, 5.5, 8.5, 11.8, 15. 1, and 29 g) until a paw withdrawal response was elicited. Each von Frey hair was applied to the paw for 6 seconds, or until a response occurred. Once a withdrawal response was established, the paw was retested, starting with the next descending von Frey hair until no response occurred. The highest force of 29 g lifted the paw as well as eliciting a response, thus represented the cut-off point. Each animal had both hind paws tested in this manner. The lowest amount of force required to elicit a response was recorded as withdrawal threshold in grams. When compounds were administered before surgery, the same animals were used to study drug effects on tactile, allodynia, and thermal hyperalgasia, with each animal being tested for tactile allodynia 1 hour after thermal hyperalgesia. Separate groups of animals were used for examination of tactile allodynia and thermal hyperalgesia when S-(+)-3-isobutylgaba was administered after surgery.
as §5

[4] = tested on: formalin-induced hind paw licking and biting; assay: Rat paw formalin test; type: in vivo; details: for effect on the early phase of the formalin response / minimum effective dose (MED), block of licking/biting behavior during the late phase of the formalin response: s.c. 1 hour before formalin; for effect on the early phase of the formalin response: early phase (0-10 minutes), any of the doses tested; for minimum effective dose (MED), block of licking/biting behavior during the late phase of the formalin response: late phase (10-45 minutes)
Protocol: Test compounds were administered s.c. 1 hour before an intraplantar injection of 50 μL formalin. The time spent licking/biting the injected paw during the early and late phases was scored.
Male Sprague-Dawley rats (70-90 g) were habituated to perspex observation chambers (24 cm×24 cm×24 cm) for at least 15 minutes prior to testing. Formalin-induced hind paw licking and biting was initiated by a 50 μL subcutaneous injection of a 5% formalin solution (5% formaldehyde in isotonic saline) into the plantar surface of the left hind paw. Immediately following the formalin injection, licking/biting of the injected hind paw was scored in 5 minute bins for 60 minutes. The results are expressed as mean combined licking/biting time for the early phase (0-10 minutes) and late phase (10-45 minutes).

[5] = tested on: carrageenin-induced thermal hyperalgesia; assay: Carrageenin-induced thermal hyperalgesia (Hargreaves model); type: in vivo, rat; details: s.c. 2.5 hours after carrageenin; PWL at 3 and 4 hours
Protocol: Nociceptive thermal thresholds were measured in the rat using the Hargreaves apparatus. Baseline (BL) measurements were taken before animal s were administered with 100 μL of 2% carrageenin by intraplantar injection. Results are shown as mean (±SEM) of 8 animals per group.
as §1
Baseline paw withdrawal latencies (PWL) were obtained for each rat using the Hargreaves model. Carrageenin was injected as described above. Animals were then tested for thermal hyperalgesia at 2 hours postcarrageenin administration. Gabapentin (10-100 mg/kg) or CI-1008 (1-30 mg/kg) was administered s.c. 2.5 hours after carrageenin, and PWL were reevaluated at 3 and 4 hours postcarrageenin administration. Carrageenin induced a significant reduction in paw withdrawal latency at 2, 3, and 4 hours following injection, indicating the induction of thermal hyperalgesia (FIG. 3). Gabapentin and CI-1008 dose-dependently antagonized the hyperalgesia with a MED of 30 and 3 mg/kg (FIG. 3).

[6] = 30 mg/kg s.c. 1 hour before surgery
[7] = 30 mg/kg, 1 hour before surgery

SMILES	effect on carrageenin-induced mechanical hyperalgesia ([1]; 3 mg/kg, s.c.)	effect on PWL of the contralateral paw in the thermal hyperalgesia test ([2]; 6 mg, s.c., data not shown)	duration of antagonism of development of thermal hyperalgesia ([2]; 1-6 mg/kg s.c. 0.5 hour before surgery) [h]	MED, block of development of thermal hyperalgesia [2] [mg/kg]	duration of prevention of development of tactile allodynia ([3]; highest dose of 6 mg/kg, 0.5 hour before surgery) [h]	blockade of the late phase of the formalin response ([4]; 100 mg/kg s.c. 1 hour before formalin)	effect on the early phase of the formalin response [4]	minimum effective dose (MED), block of licking/biting behavior during the late phase of the formalin response [4] [mg/kg]	MED, antagonism of carrageenin-induced mechanical hyperalgesia [1] [mg/kg]	MED, antagonism of carrageenin-induced thermal hyperalgesia [5] [mg/kg]	duration of prevention of the hyperalgesic response [2, 6] [h]	effect on PWL of the contralateral paw in the thermal hyperalgesia test ([2]; up to the highest dose tested)	duration of effect on tactile allodynia ([3]; 10 mg/kg, 1 hour before surgery) [h]	duration of effect on tactile allodynia [3, 7] [h]	effect on tactile allodynia scores in the contralateral paw [3]	MED, prevention of development of tactile allodynia [3] [mg/kg]	duration of effect on thermal hyperalgesia [2, 6]	block of induction and maintenance of hyperalgesia ([2]; summary statement)	duration of blockade of the allodynia response [3, 7] [days]	block of induction and maintenance of allodynia ([3]; summary statement)
CN1CC[C@]23c4c5ccc(O)c4O[C@H]2[C@@H](O)C=C[C@H]3[C@H]1C5 [Morphine]	complete blockade of hyperalgesia	increased PWL of the contralateral paw	24	1	3															
CC(C)CC(CN)CC(=O)O (centres unmarked) [3-aminomethyl-5-methyl-hexanoic acid, 3-aminomethyl-5-methylhexanoic acid]						only a modest blockade														
NCC1(CC(=O)O)CCCCC1 [Gabapentin, 1-(aminomethyl)-cyclohexaneacetic acid]				30			neither of the compounds affected the early phase	30	10	30	24	did not affect PWL	25	49	did not affect	10				
CC(C)C[C@H](CN)CC(=O)O [CI-1008, (S)-3-(aminomethyl)-5-methylhexanoic acid]				3			neither of the compounds affected the early phase	10	3	3		did not affect PWL			did not affect	10	up to 3 days	completely blocked	3	completely blocked
